Assay results reported in patent publication US20210387983A1, “CRYSTALLINE ALK5 INHIBITORS AND USES THEREOF” (THERAVANCE BIOPHARMA R&D IP, LLC, priority 2020, published 2021).

Assays:
[1] = Lung PK/PD: PK study after oral aspiration; format: in vivo; details: C57bl/6n, mouse, lung / plasma, mice, 3% glycerol in PBS pH=4, read-out: (lung AUC0-4):(plasma AUC0-4) ratio
Description: C57bl/6n mice were acclimated for at least 3 days before use. On the day of the experiment, animals were grouped into sample sizes of 5 (n=10 for the TGF-β stimulated group). The compound of Formula I (formulated in 3% glycerol in PBS; pH=4) was pre-treated via oral aspiration (OA; animals are forced to aspirate solution into the lungs by covering their nose). All oral aspirations were performed using a 50 μL dosing volume and accompanied by the appropriate vehicle control groups. Following compound OA treatment, the animals were returned to their home cages and monitored. Compound pre-treatment occurred 4 hours prior to harvest for screening and dose-response studies; duration studies had variable compound pre-treatment times. One hour prior to harvest, animals were challenged via oral aspiration a second time with PBS vehicle or recombinant human TGF-β1 protein (0.01 μg per animal dissolved in 1 part 4 mM HCl and 2 parts 3% glycerol in PBS). Five minutes prior to harvest, animals were deeply anesthetized under isoflurane and euthanized via cervical dislocation. […]
Left lung lobes were harvested immediately after BALF collection. […] Following collection of the supernatant, a total protein quantification assay (Bradford) was performed to normalize the concentrations of all samples. […]
Plasma, lung and macrophage drug concentrations were quantified. […]

SMAD3 phosphorylation = assay: Cardiac PK/PD: systemic target engagement, pSMAD3/tSMAD3 in heart by Meso-Scale Discovery; format: in vivo, C57bl/6n mice; details: mice, oral aspiration 2 or 4 hours prior to harvest; TGF-β1 i.v. challenge; heart samples
Description: C57bl/6n mice were acclimated for at least 3 days before use. On the day of the experiment, animals were grouped into sample sizes of 5-10. Test compounds were pre-treated via oral aspiration (OA; animals are forced to aspirate solution into the lungs by covering their nose). All oral aspirations were performed using a 50 μL dosing volume and accompanied by a vehicle control group (3% glycerol in PBS, pH=4). Following compound OA treatment, the animals were returned to their home cages and monitored. Compound pre-treatment occurred either 2 or 4 hours prior to harvest. One hour prior to harvest, animals were challenged via tail-vein intravenous injection with PBS vehicle or recombinant human TGF-β1 protein (1 μg per animal dissolved in 1 part 4 mM HCl and 2 parts 3% glycerol in PBS). Five minutes prior to harvest, animals were deeply anesthetized under isoflurane and euthanized via cervical dislocation. Plasma, left lung lobes and whole hearts were collected during harvest.
Blood plasma was harvested as described above in the Lung PK/PD experiment. Whole hearts were processed in the same manners as left lung lobes in the Lung PK/PD experiment. Left lung lobes were homogenized in 500 μL of water and submitted for BA Analysis.
Heart samples were processed using MSD in the same manner as the left lung lobes above. […] Plasma, lung and heart drug concentrations were quantified.

[2] = tested on: DSS-induced intestinal fibrosis; assay: Efficacy study in murine DSS-induced intestinal fibrosis model; format: in vivo, C57BL/6J mice; details: oral gavage following the second of the 3 cycles of DSS; sacrifice at 6, 9 or 12 weeks
Description: The compound of Formula I is expected to slow, halt or reverse the progression of intestinal fibrosis in a murine colitis model. Six to 8-week old male C57BL/6J mice are tagged and weighed. The drinking water of the animals is treated with 2.5% dextran sulfate sodium (DSS) for 7 days to induce acute colitis, followed by 2 days of normal drinking water. Three, 3-week cycles of 2.5% DSS treatment (1 week of 2.5% DSS in water; 2 weeks of normal water) are then completed to induce intestinal fibrosis. Following the second of the 3 cycles of DSS administration, mice are treated with either vehicle control or the compound of Formula I at an appropriate amount and frequency via oral gavage (e.g., once daily). Animals are sacrificed at either 6, 9 or 12 weeks after the first DSS cycle, then distal, mid and proximal sections of the colon harvested for histologic analysis, RNA extraction and cytokine measurement.

C[C@@H]1CN(CCNc2cnc3ccc(-c4nc[nH]c4-c4cc(Cl)ccc4F)nc3c2)C[C@H](C)N1 [compound of Formula I, 6-(5-(5-chloro-2-fluorophenyl)-1H-imidazol-4-yl)-N-(2-((3S,5R)-3,5-dimethylpiperazin-1-yl)ethyl)-1,5-naphthyridin-3-amine]
Kp [1]: > 75 | systemic target engagement, as measured by SMAD3 phosphorylation inhibition (SMAD3 phosphorylation): minimal target engagement systemically | intestinal fibrosis [2]: slow, halt or reverse intestinal fibrosis
